According to patent US20250170248A1, “SMARCA DEGRADERS AND USES THEREOF” (Kymera Therapeutics, Inc., priority 2021, published 2025):

Legend:
Assay type in all cases: cell-based
SMARCA2 [1] = target: T1, SMARCA2 (Homo sapiens, UniProt P51531); assay: MSD SMARCA2 degradation in A549 cell line; conditions: for DC50 / Dmax: 24 h; for DC50: read-out: SMARCA2 MSD A549 degradation 24 h: Average external-Abs DC50; for Dmax: A549, A549 cells
Protocol: Example 10. MSD SMARCA2 Degradation in A549 Cell Line
Cells were seeded into 96-well plates (A549 cells: 2×10^4 cells/well/100 ul media) and incubated overnight. The next day, 200 nL compound were added into the intermediate plate with Echo (Labcyte 550) from source plate containing a 3-fold serial dilution from top concentration of 1 mM. The culture medium was changed with 8 0ul of fresh medium and 80 μL of 2× compound solution was added into the well to make a final concentration of 1000 nM, 333.3 nM, 111.1 nM, 37.04 nM, 12.35 nM, 4.115 nM, 1.372 nM, 0.457 nM, 0.152 nM and 0 nM (DMSO). The wells were mixed and then incubated for 24 hours. The media was aspirated from the cultures and 60 ul pre-chilled PIPA lysis buffer (Boston BioProducts BP-115D) with protease/phosphatase inhibitor (Roche 05892791001/Roche 04906837001) was added into the well to lyze the cells for 20 minutes at 4° C. The MSD plate (L15XA) was coated with 40 uL cell lysate and incubated at 4° C. overnight. The next day, the plate was washed three times with TBST (CST #9997S), 150 ul/well. The MSD plates was blocked with 150 ul blocking buffer per well and shaked for 1 hr at RT, 600 rpm. The blocking buffer was 3% Blocker A (MSD, R93BA-4) in TBST. The MSD plate was washed three times with 150 uL/well of TBST and 25 ul/well of detection antibody (Rabbit anti-SMARCA2/BRM antibody, 100 μg/mL, ab223735) was added at final concentration of 1 μg/mL diluted in 1% Blocking buffer and shaken for 1 hour at RT, 600 rpm. The MSD plate was washed three times with 150 ul/well of TBST and 25 ul/well of SULFO-TAG anti-rabbit antibody (MSD, R32AB-1) was added at final concentration of 1 μg/ml diluted in 1% Blocking buffer and shaken for 1 hour at RT, 600 rpm. The MSD plate was washed three times with 150 uL/well of TBST and 150 ul/well of 2× MSD reading buffer diluted from 4× (MSD, R92TC-2) with water was added. Lastly, the MSD instrument was read.
The letter codes for SMARCA2 degradation potency (DC50) include: A (<10 nM), B (10-50 nM), C (>50-100 nM), and D (>100 nM). The letter codes for the percentage of SMARCA degradation after 24 hours (Dmax %) include: A (>90% degradation), B (>70-90% degradation), C (50-70% degradation), and D (<50% degradation).

SMARCA2 [2] = target: T1, SMARCA2; assay: SMARCA2 Western blot degradation in MV4-11 cells; parameters: SMARCA2/SMARCA4 protein degradation selectivity in MV4-11 cells; endogenous in cells; host or cells: MV4-11; conditions: for Dmax: MV4-11, MV4-11 cells, read-out: SMARCA2 MSD MV411 degradation 24 h: average Dmax %; for DC50: read-out: SMARCA2 MSD MV411 degradation 24 h: Mean external-Abs DC50; for Selectivity in MV411: SMARCA2/4 selectivity
SMARCA4 = target: T2, SMARCA4 (Homo sapiens, UniProt P51532); assay: SMARCA4 Western blot degradation in MV4-11 cells; conditions: for Dmax: MV4-11, MV4-11 cells, read-out: SMARCA4 MSD MV411 degradation 24 h: average Dmax %; for Dmax / DC50: 24 h; for DC50: read-out: SMARCA4 MSD MV411 degradation 24 h: Mean external-Abs DC50
T2 construct: SMARCA2/SMARCA4 protein degradation selectivity in MV4-11 cells; endogenous in cells; host or cells: MV4-11
Protocol: Example 11. SMARCA2 and SMARCA4 Western Blot MV4-11 Degradation
Cells were seeded into 6-well plates (MV4-11:4×10^6 cells/well/1 ml) and 1 ml of 2× compound solution was added into the well to make the final concentration and the plates were mixed well and incubated for 24 hours (No cytotoxicity was observed). The cell were collected with media and spun at 3000 rpm for 5 minutes. The supernatant was aspirated and the well and the cells were washed with cold PBS once and combined for centrifugation again; the supernatant aspirated again. 200 uL pre-chilled RIPA lysis buffer (Boston BioProducts BP-115D) with protease/phosphatase inhibitor (Roche 05892791001/Roche 04906837001) was directly added into the tube to lyze the cells for 20 minutes on ice. The cell lysate were collected into EP tubes and spun at 13000 rpm for 20 minutes and 72 uL supernatant was transferred to a fresh EP tube containing 18 μL of 5× loading buffer (Beyotime Bio P0015) to make the loading samples. The samples were heated to 100° C. for 10 minutes and cooled to RT and microcentrifuged. 20 μL of samples were loaded onto SDS-PAGE gel (Novex, WG1402BOX) and the gel was run at 80 V for 20 minutes and 120 V for 1.5 hours. The samples were electrotransfer to a NC membrane using wet-transfer method with 250 mA for 2.5 hours. The membrane was blocked with LICOR blocking buffer (LI COR,927-50000) for 1 hour. The membrane was washed three times with TBST(CST #9997S), 5 minutes each. Incubation was performed with primary antibody prepared in blocking buffer with 0.1% Tween-20 (Solarbio, P8220) at 4° C. overnight (Anti-SMARCA2/BRM antibody (ab15597) 1:500; Anti-BRG1 antibody [EPR3912](ab108318) 1:1000; Rabbit anti-Bafl80 antibody [EPR15860](Abcam,ab196022) 1:1000; mouse anti-beta-Actin (8H10D10) (CST #3700) 1:10000). The membrane was washed three times with TBST, 5 minutes each. Incubation with secondary antibody was performed for 1 hour at RT (anti-rabbit IgG (Licor,926-32211) 1:5000; anti-mouse IgG (LI-COR, 926-68070) 1:5000). The membrane was washed three times with 5 minutes each and lastly the LiCOR was read.
The letter codes for SMARCA2/4 degradation potency (DC50) include: A (<1 nM), B (1-10 nM), C (>10-100 nM), and D (>100 nM). The letter codes for the percentage of SMARCA2/4 degradation after 24 hours (Dmax %) include: A (>90% degradation), B (>70-90% degradation), C (50-70% degradation), and D (<50% degradation). The letter codes of SMARCA2/4 selectivity include: A (>500 fold), B (>100-500 fold), C (10-100 fold), and D (<10 fold). Table 8. SMARCA2/4 Selectivity Results

T2 sequence (P51532 whole entry): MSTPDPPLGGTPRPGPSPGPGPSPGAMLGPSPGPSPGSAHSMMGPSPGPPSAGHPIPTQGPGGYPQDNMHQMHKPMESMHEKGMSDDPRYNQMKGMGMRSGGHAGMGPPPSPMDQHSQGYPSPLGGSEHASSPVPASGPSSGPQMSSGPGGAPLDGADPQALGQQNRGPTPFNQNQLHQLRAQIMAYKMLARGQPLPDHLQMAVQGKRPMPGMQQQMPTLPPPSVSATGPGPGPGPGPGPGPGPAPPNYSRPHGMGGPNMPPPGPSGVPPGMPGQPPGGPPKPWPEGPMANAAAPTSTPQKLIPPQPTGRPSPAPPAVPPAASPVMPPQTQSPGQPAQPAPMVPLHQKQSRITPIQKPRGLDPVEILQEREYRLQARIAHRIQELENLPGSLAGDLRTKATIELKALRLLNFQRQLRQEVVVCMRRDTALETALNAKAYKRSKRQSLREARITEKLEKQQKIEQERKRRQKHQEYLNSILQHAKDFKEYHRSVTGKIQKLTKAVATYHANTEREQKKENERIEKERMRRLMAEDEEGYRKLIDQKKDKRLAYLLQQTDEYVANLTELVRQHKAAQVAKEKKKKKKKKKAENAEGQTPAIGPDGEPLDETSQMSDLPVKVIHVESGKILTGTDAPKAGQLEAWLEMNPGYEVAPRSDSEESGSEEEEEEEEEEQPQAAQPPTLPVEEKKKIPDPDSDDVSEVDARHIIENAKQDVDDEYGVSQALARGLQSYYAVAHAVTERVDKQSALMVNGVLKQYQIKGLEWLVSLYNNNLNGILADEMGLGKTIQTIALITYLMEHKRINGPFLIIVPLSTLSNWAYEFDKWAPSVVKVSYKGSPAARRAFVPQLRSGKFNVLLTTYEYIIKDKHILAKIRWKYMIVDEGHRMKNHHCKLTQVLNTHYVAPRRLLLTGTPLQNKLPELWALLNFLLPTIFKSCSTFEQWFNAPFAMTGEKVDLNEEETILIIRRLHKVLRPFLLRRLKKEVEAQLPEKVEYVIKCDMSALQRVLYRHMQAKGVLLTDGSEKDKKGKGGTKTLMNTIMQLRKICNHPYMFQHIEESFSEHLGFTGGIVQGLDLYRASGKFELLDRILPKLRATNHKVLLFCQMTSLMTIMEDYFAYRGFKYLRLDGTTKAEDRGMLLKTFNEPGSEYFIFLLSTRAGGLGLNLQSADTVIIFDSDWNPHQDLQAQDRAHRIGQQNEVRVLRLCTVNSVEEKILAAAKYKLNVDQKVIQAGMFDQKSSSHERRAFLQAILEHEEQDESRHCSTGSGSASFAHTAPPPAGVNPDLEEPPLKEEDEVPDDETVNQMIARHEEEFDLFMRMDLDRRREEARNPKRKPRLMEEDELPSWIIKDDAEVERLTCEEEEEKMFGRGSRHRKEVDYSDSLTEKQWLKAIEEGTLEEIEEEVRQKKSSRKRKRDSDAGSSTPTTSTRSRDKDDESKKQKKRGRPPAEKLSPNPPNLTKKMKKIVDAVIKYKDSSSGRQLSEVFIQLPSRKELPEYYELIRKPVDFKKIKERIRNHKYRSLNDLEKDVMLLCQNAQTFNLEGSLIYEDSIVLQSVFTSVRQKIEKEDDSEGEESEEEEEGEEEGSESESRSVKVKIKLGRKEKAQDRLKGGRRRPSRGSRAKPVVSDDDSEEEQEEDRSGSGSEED
T1 sequence (P51531 whole entry): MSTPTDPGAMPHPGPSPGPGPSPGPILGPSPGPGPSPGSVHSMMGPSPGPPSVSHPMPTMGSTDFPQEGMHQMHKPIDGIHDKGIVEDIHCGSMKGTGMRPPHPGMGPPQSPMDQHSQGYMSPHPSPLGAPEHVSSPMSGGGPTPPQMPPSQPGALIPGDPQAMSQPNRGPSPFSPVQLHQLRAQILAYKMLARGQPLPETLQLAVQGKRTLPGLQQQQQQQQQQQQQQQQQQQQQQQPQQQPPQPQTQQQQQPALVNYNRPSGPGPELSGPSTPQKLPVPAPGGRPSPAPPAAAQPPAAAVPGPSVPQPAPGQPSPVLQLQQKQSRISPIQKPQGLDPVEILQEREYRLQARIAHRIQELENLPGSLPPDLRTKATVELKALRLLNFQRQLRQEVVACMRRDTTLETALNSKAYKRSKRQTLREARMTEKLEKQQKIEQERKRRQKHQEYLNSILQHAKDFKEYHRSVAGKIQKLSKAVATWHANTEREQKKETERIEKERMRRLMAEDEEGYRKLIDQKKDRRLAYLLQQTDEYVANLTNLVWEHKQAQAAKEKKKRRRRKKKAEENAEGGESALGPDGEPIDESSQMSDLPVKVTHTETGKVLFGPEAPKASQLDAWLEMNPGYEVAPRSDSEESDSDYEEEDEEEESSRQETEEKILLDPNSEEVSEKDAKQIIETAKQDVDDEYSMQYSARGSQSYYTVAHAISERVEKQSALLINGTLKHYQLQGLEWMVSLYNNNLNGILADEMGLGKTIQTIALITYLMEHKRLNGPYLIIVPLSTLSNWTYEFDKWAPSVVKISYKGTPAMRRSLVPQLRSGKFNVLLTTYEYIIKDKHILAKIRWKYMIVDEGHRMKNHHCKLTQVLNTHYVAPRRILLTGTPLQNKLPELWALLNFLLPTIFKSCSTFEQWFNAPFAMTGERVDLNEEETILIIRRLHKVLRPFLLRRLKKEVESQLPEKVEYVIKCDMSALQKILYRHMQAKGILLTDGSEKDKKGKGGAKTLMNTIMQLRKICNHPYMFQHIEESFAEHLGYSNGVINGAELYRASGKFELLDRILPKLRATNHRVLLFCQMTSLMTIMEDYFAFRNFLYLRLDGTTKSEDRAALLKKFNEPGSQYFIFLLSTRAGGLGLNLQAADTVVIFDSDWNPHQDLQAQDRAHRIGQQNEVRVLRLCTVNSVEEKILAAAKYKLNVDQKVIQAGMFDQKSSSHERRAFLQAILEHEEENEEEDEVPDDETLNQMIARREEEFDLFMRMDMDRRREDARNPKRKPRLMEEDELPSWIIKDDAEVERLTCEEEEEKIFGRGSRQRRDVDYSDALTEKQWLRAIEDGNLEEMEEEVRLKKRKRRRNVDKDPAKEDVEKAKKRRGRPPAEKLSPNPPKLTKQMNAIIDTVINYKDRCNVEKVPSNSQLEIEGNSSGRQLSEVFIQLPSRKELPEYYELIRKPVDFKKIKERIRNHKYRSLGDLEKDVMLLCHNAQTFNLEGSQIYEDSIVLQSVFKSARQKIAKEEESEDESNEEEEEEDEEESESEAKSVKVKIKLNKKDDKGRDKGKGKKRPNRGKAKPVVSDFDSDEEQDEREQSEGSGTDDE

SMILES	SMARCA2 MSD A549 degradation 24 h: Average Dmax % (SMARCA2 [1]; A549 cells)	DC50 (SMARCA2 [1]; A549 cells) [nM]	Dmax (SMARCA2 [2]; 24 h) [%]	DC50 (SMARCA2 [2]; MV4-11 cells, 24 h) [nM]	Dmax (SMARCA2 [1]) [%]	Dmax (SMARCA4) [%]	DC50 (SMARCA4; MV4-11 cells) [nM]	Selectivity in MV411 (SMARCA2 [2]; MV4-11 cells)	SMARCA4 MSD MV411 degradation 24 h: average Dmax % (SMARCA4; MV4-11 cells)	SMARCA2 MSD MV411 degradation 24 h: average Dmax % (SMARCA2 [2]; MV4-11 cells, 24 h)
C#Cc1ccc(CNC(=O)[C@@H]2C[C@@H](O)CN2C(=O)[C@@H](NC(=O)[C@H]2CCC3(CC2)C[C@H](N2CCC(c4cnc(N5CCN6c7cc(-c8cccc(Cl)c8O)nnc7NC[C@H]6C5)nc4)CC2)C3)C(C)(C)C)cc1 (single isomer, unassigned) [I-105]	A (A (>90% degradation))	> 100	50 to 70	10 to 100	–	–	–	–	–	–
C#CCOc1cc(C(C(=O)N2C[C@H](O)C[C@H]2C(=O)NCc2ccc(-c3scnc3C)cc2O[C@H]2CC[C@@H](N3CCC(c4cnc(N5CCc6[nH]c7nnc(-c8ccccc8O)cc7c6[C@@H]5C)nc4)CC3)CC2)C(C)C)on1 (some centres unmarked) [I-39]	–	> 100	–	–	50 to 70	–	–	–	–	–
C#Cc1ccc(CNC(=O)[C@@H]2C[C@@H](O)CN2C(=O)[C@@H](NC(=O)[C@H]2CCC3(CC2)C[C@H](N2CCC(c4cnc(N5CCN6c7cc(-c8cccc(Cl)c8O)nnc7NC[C@@H]6C5)nc4)CC2)C3)C(C)(C)C)cc1 (single isomer, unassigned) [I-153]	–	> 100	70 to 90	1 to 10	> 90	–	–	–	–	–
Cc1cc(F)ccc1C#CCNC(=O)[C@@H]1C[C@@H](O)CN1C(=O)[C@@H](NC(=O)[C@H]1CCC2(CC1)C[C@H](N1CCC(c3cnc(N4CCN5c6cc(-c7ccccc7O)nnc6NC[C@H]5C4)nc3)CC1)C2)C(C)(C)C (some centres unmarked) [I-115]	–	> 100	–	–	–	–	–	–	–	–
C#Cc1ccc(CNC(=O)[C@@H]2C[C@@H](O)CN2C(=O)[C@@H](NC(=O)[C@H]2CCC3(CC2)C[C@H](N2CCC(c4cnc(N5CCN6c7cc(-c8ccccc8O)nnc7NC[C@H]6C5)nc4)CC2)C3)C(C)(C)C)cc1 (single isomer, unassigned) [I-25]	–	–	70 to 90	< 1	–	70 to 90	10 to 100	C (C (10-100 fold))	–	–
Cc1ncsc1-c1ccc(CNC(=O)[C@@H]2C[C@@H](O)CN2C(=O)[C@@H](NC(=O)[C@H]2CC3(CC[C@H](N4CCC(c5cnc(N6CCN7c8cc(-c9ccccc9O)nnc8NC[C@H]7C6)nc5)CC4)CC3)C2)C(C)(C)C)cc1 (single isomer, unassigned) [I-66]	–	–	–	10 to 100	–	–	> 100	B (B (>100-500 fold))	D (D (<50% degradation))	B (B (>70-90% degradation))
Cc1ncsc1-c1ccc(CNC(=O)[C@@H]2C[C@@H](O)CN2C(=O)[C@@H](NC(=O)[C@H]2CCC3(CC2)C[C@H](N2CCC(c4cnc(N5CCN6c7cc(-c8ccccc8O)nnc7NC[C@H]6C5)nc4)CC2)C3)C(C)(C)C)cc1 (some centres unmarked) [I-71]	–	–	–	1 to 10	–	–	> 100	A (A (>500 fold))	–	–
Cc1ncsc1-c1ccc(CNC(=O)[C@@H]2C[C@@H](O)CN2C(=O)[C@@H](NC(=O)N2CCC3(CC2)CC(N2CCC(c4cnc(N5CCc6[nH]c7nnc(-c8ccccc8O)cc7c6[C@@H]5C)nc4)CC2)C3)C(C)(C)C)cc1 [I-59]	–	–	–	–	< 50	–	–	–	–	–
Cc1ncsc1-c1ccc(CNC(=O)[C@@H]2C[C@@H](O)CN2C(=O)[C@@H](NC(=O)C2(F)CC2)C(C)(C)C)c(OC2CN(CCN3CCC(c4cnc(N5CCc6[nH]c7nnc(-c8ccccc8O)cc7c6C5C)nc4)CC3)C2)c1 (some centres unmarked) [I-44]	–	–	70 to 90	10 to 100	–	70 to 90	> 100	D (D (<10 fold))	–	–
Cc1ncsc1-c1ccc(CNC(=O)[C@@H]2C[C@@H](O)CN2C(=O)[C@@H](NC(=O)N2CC3(CCC(N4CCC(c5cnc(N6CCN7c8cc(-c9ccccc9O)nnc8NC[C@H]7C6)nc5)CC4)CC3)C2)C(C)(C)C)cc1 [I-69]	–	–	> 90	< 1	–	> 90	1 to 10	D (D (<10 fold))	–	–
CC(C)C(C(=O)N1C[C@H](O)C[C@H]1C(=O)NCc1ccc(Cl)cc1)c1cc(N2CC3(CC(N4CCC(c5cnc(N6CCN7c8cc(-c9ccccc9O)nnc8NC[C@H]7C6)nc5)CC4)C3)C2)no1 (some centres unmarked) [I-17]	–	–	< 50	> 100	–	< 50	> 100	C (C (10-100 fold))	–	–
Cc1ncsc1-c1ccc(CNC(=O)[C@@H]2C[C@@H](O)CN2C(=O)[C@@H](NC(=O)N2CCC3(CC2)CC(N2CCC(c4cnc(N5CCN6c7cc(-c8ccccc8O)nnc7NC[C@H]6C5)nc4)CC2)C3)C(C)(C)C)cc1 [I-67]	–	–	< 50	> 100	–	< 50	> 100	C (C (10-100 fold))	–	–
C#Cc1ccc(CNC(=O)[C@@H]2C[C@@H](O)CN2C(=O)[C@@H](NC(=O)[C@H]2CC[C@@H](c3ccc(-c4cnc(N5CCN6c7cc(-c8ccccc8O)nnc7NC[C@H]6C5)nc4)cc3)CC2)C(C)(C)C)cc1 [I-24]	–	–	> 90	< 1	–	> 90	1 to 10	D (D (<10 fold))	–	–
